The target of experiment [1] is Dual specificity calcium/calmodulin-dependent 3',5'-cyclic nucleotide phosphodiesterase 1A (Homo sapiens, UniProt P54750). The experiment is described as follows: Inhibition Assay: PDE1A, PDE1B and PDE1C assays were performed as follows: the assays were performed in 60 μL samples containing a fixed amount of the PDE1 enzyme (sufficient to convert 20-25% of the cyclic nucleotide substrate), a buffer (50 mM HEPES pH 7.6; 10 mM MgCl2; 0.02% Tween20), 0.1 mg/ml BSA, 15 nM tritium labelled cAMP and varying amounts of inhibitors. Reactions were initiated by ….
Description: (§1) Reactions were initiated by addition of the cyclic nucleotide substrate, and reactions were allowed to proceed for 1 hr at room temperature before being terminated through mixing with 20 μL (0.2 mg) yttrium silicate SPA beads (PerkinElmer).

For experiment [2], the target named is Dual specificity calcium/calmodulin-dependent 3',5'-cyclic nucleotide phosphodiesterase 1C (Homo sapiens, UniProt Q14123). The experiment is described as above.
Description: as §1

SMILES strings stand for the structures.

For orientation: IC50 means the point on the concentration scale where inhibition reaches its midpoint.

Chain of Dual specificity calcium/calmodulin-dependent 3',5'-cyclic nucleotide phosphodiesterase 1A (P54750 whole entry): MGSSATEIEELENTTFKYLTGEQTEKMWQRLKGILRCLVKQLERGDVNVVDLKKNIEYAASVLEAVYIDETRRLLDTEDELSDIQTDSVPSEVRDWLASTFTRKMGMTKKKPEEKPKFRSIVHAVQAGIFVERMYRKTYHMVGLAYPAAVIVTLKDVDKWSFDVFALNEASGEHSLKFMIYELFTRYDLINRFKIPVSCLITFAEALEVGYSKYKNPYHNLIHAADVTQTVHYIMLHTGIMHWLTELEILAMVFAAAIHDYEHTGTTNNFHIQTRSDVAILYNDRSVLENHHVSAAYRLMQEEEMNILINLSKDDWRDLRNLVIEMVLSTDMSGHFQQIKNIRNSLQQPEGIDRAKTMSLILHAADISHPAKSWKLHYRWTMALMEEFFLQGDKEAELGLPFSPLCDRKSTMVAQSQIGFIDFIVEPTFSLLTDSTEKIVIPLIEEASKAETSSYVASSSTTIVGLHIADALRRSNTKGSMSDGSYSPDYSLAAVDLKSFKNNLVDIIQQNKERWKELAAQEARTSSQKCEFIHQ
Chain of Dual specificity calcium/calmodulin-dependent 3',5'-cyclic nucleotide phosphodiesterase 1C (Q14123 whole entry): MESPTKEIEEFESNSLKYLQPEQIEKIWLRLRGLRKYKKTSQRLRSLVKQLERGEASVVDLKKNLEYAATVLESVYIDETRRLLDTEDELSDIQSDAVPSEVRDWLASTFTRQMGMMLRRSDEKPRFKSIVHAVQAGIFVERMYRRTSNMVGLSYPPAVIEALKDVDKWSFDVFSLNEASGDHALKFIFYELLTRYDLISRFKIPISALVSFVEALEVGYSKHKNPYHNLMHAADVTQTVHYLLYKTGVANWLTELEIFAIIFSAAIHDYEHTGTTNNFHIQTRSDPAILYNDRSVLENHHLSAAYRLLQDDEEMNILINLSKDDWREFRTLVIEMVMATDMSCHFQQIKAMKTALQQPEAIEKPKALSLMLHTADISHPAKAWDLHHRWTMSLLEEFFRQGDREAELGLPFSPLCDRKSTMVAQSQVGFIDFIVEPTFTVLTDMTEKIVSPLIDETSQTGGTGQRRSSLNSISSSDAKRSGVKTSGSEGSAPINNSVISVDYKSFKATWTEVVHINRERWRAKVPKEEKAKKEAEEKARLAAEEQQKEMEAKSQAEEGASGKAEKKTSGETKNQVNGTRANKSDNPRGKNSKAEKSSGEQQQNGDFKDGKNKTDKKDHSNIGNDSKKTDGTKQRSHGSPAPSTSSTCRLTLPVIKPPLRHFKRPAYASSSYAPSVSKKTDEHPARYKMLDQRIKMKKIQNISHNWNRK

Regarding `CCOc1ncccc1-c1cc(NCc2cccc3ocnc23)c2c(n1)c(C)nn2C(C)C`, the IC50 was 14 nM in experiment [1] and 39 nM in experiment [2].
Take `CCOc1ncccc1-c1cc(NCc2cccn3c(C)nnc23)c2c(n1)c(C)nn2C(C)C`: the figures for the half-maximal inhibitory concentration (IC50) in experiment [1] and in experiment [2] were 3 nM and 6.1 nM, respectively.

Values taken from ChEMBL document CHEMBL5727957, “1H-pyrazolo[4,3-b]pyridines as PDE1 inhibitors” (2020).
